{"source": "patent US11969408B2", "about": "“Method for improving mitophagy in subjects” (Amazentis SA, priority 2017, dated 2024)", "assay_type_in_all_cases": "in vivo, human", "key": {"[1]": {"assay": "Plasma pharmacokinetics after single oral dose (clinical study Part A)", "description": "Part A: The study was a double-blind, randomized, single ascending doses, study in 24 healthy elderly male and female volunteers. Each subject was randomized for two subsequent doses in three cohorts. Part A: Single oral dose administration on D1 of each period according to the randomisation. The administration took place around 8:00 am with around 200 mL tap water, in sitting position, and under fasting conditions. Cohort 1 (8 subjects): 250 mg urolithin A (6 subjects) or placebo (2 subjects) capsule soft gel formulation then 2000 mg urolithin A or placebo capsule soft gel formulation. Cohort 3 (8 subjects): 1000 mg urolithin A (6 subjects) or placebo (2 subjects) capsule soft gel formulation. After single dosing: Cmax, tmax, AUC0-t, AUC0-∞, t1/2 From the plasma concentration-time data, the following pharmacokinetic parameters will be determined, as data permit using non-compartmental methods: maximum observed plasma concentration (Cmax) (ng/mL), time at which maximum observed plasma concentration (tmax) (h), area under the plasma concentration-time curve AUC(0-24h) (ng/mL*h) and AUC(0-∞) (ng/mL*h), and apparent terminal phase half-life (t1/2) (h). Blood sampling was performed for urolithin A concentration measurements at the exact timepoints with an authorised time window described in the table below: At each time point indicated in the table, a 6 mL blood sample was drawn into K2-EDTA coated tube. The blood samples were gently inverted a few times for complete mixing with the anticoagulant. The exact time of sample collection was recorded on the eCRF. Within 30 minutes following blood collection, each blood sample was centrifuged at 1500 g for 10 minutes at 4° C. From the plasma concentration-time data, the following pharmacokinetic parameters were determined, as data permit using non-compartmental methods: maximum observed plasma concentration (Cmax), time at which maximum observed plasma concentration (tmax), area under the plasma concentration-time curve AUC(0-24h) and AUC(0-∞), and apparent terminal phase half-life (t1/2)."}, "[2]": {"assay": "Plasma pharmacokinetics after 28 day daily oral dosing (clinical study Part B)", "description": "Part B: The study was a double-blinded, randomized, multiple ascending dose study in 36 healthy elderly male and female volunteers. Each subject was randomised to receive study product or placebo for 28 days. Part B: Repeated oral dose administration from day 1 to day 28 according to the randomization. The administration took place around 8:00 am with around 200 mL tap water, in a sitting position, and under fasting conditions. Cohort 3 (12 subjects): 1000 mg urolithin A (9 subjects) or placebo (3 subjects) soft gel capsule formulation for 28 days. After multiple dosing: Cmax, tmax, AUC0-24h, t1/2 From the plasma concentration-time data, the following pharmacokinetic parameters will be determined, as data permit using non-compartmental methods: maximum observed plasma concentration (Cmax) (ng/mL), time at which maximum observed plasma concentration (tmax) (h), area under the plasma concentration-time curve AUC(0-24h) (ng/mL*h) and AUC(0-∞) (ng/mL*h), and apparent terminal phase half-life (t1/2) (h). Blood sampling was performed for urolithin A concentration measurements at the exact timepoints with an authorised time window described in the table below: At each time point indicated in the table, a 6 mL blood sample was drawn into K2-EDTA coated tube. The blood samples were gently inverted a few times for complete mixing with the anticoagulant. The exact time of sample collection was recorded on the eCRF. Within 30 minutes following blood collection, each blood sample was centrifuged at 1500 g for 10 minutes at 4° C. From the plasma concentration-time data, the following pharmacokinetic parameters were determined, as data permit using non-compartmental methods: maximum observed plasma concentration (Cmax), time at which maximum observed plasma concentration (tmax), area under the plasma concentration-time curve AUC(0-24h) and AUC(0-∞), and apparent terminal phase half-life (t1/2)."}, "[3]": {"system": "mitochondrial content per cell in muscle tissue", "assay": "Mitochondrial DNA copies per cell in muscle tissue", "details": "1000 mg per day for 28 days compared with placebo", "description": "Muscle biopsies were collected on Day −1 and Day 28 at pre-dose under fasted state using the Bergström biopsy needle technique. The minimal amount of each muscle tissue sample was approximately 50 mg. One third of the tissue was used for gene expression (≈50 mg), and was further divided into two equal portions: one portion for RNA analysis (≈25 mg) and one portion for DNA analysis (≈25 mg), both in a Safe-lock Tubes 2.0 ml, Eppendorf (part no. 0030.120.094). Muscle tissue was snap frozen using liquid nitrogen immediately after collection and further, long term storage will be in a −80° C. freezer. The mRNA was analysed by microarray. Quantification of mtDNA over nuclear DNA provided another measure of mitochondrial abundance. The shipment was done in dry ice by specialized carrier. Temperatures were monitored using data logger during all transport. Increasing mitochondrial content per cell in muscle tissue was also observed following dosage of 1000 mg urolithin A per day for 28 days compared with placebo."}, "[4]": {"system": "pyruvate, lactate and glucose in plasma", "assay": "Plasma metabolomics: pyruvate, lactate, glucose plasma levels", "details": "1000 mg cohort, day −1 to day 28", "description": "Blood sampling was performed for analysis on plasma at the exact time-points described in the table below: Blood handling procedures: at each time point indicated in the table, a 6 mL blood sample was drawn into K2-EDTA coated tube. The blood samples were gently inverted a few times for complete mixing with the anticoagulant. The exact time of sample collection was recorded on the eCRF. Within 30 minutes following blood collection, each blood sample was centrifuged at 1500 g for 10 minutes at 4° C. 30 minutes after the centrifugation, the top layer of human plasma was transferred into 2 pre-labelled polypropylene tubes, containing approximately 1500 μL of plasma. Blood cells were not transferred. All sample tubes were clearly and appropriately labelled. Tubes were capped immediately from each time point and the plasma was be frozen in an upright position at approximately −80° C. for storage. Measurement of metabolites: Samples were extracted and split into equal parts for analysis on the LC/MS/MS and Polar LC platforms. Proprietary software was used to match ions to an in-house library of standards for metabolite identification and for metabolite quantitation by peak area integration. A total of 781 metabolites were quantified. Metabolomics is the study of known measurable metabolites in a sample. […]"}}, "data": [{"smiles": "O=c1oc2cc(O)ccc2c2ccc(O)cc12", "note": "[Urolithin A]", "values": [{"measurement": "plasma levels of urolithin A per mg dosed (dose-normalised Cmax and AUC)", "setting": "[1]; 1000 mg dosage compared with 2000 mg dosage, single oral dose", "value": "higher plasma levels"}, {"measurement": "Cmax", "setting": "[1]; both sexes, human, plasma, single oral dose 1000 mg urolithin A, healthy elderly subjects", "value": 1.92, "unit": "ng/mL"}, {"measurement": "AUC", "setting": "[1]; both sexes, human, plasma, single oral dose 1000 mg urolithin A, healthy elderly subjects, read-out: AUC out to 36 hours", "value": 15.8, "unit": "ng·h/mL"}, {"measurement": "pharmacokinetics (Cmax and AUC) at 1000 mg compared with 2000 mg", "setting": "[1]; oral administration, 1000 mg vs 2000 mg dosage", "value": "higher Cmax and AUC"}, {"measurement": "pharmacokinetic profile over the 28 day period (mean plasma concentrations 24 h after previous dose)", "setting": "[2]; 500 mg daily dosage, days 0, 7, 14, 28, 29", "value": "stable"}, {"measurement": "Cmax", "setting": "[2]; both sexes, human, plasma, day 28, daily oral 1000 mg urolithin A for 28 days", "value": 1.97, "unit": "ng/mL"}, {"measurement": "AUC", "setting": "[2]; both sexes, human, plasma, day 28, daily oral 1000 mg urolithin A for 28 days, read-out: AUC out to 24 hours", "value": 17.5, "unit": "ng·h/mL"}, {"measurement": "mitochondrial content per cell in muscle tissue (mitochondrial DNA copies per cell)", "setting": "[3]", "value": "Increasing"}, {"measurement": "pyruvate, lactate and glucose levels in plasma", "setting": "[4]", "value": "no significant change"}]}]}
